Legend:
[1] = target: mTAAR1 (Mus musculus, UniProt Q923Y8); test: Radioligand binding, mouse TAAR1 ([3H]RO5166017)
[2] = target: T1, h5-HT1A receptor (Homo sapiens, UniProt P08908); test: Radioligand binding, 5-HT1A receptor ([3H]8-OH-DPAT)
T1 sequence (P08908 1-422): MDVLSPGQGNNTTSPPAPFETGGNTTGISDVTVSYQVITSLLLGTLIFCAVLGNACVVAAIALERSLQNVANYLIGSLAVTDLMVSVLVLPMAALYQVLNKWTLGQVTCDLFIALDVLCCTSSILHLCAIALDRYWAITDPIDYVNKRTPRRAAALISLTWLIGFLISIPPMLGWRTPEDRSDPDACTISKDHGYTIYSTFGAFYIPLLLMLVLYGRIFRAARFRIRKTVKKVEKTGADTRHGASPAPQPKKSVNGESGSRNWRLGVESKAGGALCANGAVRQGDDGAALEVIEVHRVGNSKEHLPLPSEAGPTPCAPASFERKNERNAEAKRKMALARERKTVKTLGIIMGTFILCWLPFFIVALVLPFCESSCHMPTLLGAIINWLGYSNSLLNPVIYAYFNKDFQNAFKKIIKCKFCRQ

[3] = cited from earlier work
[4] = anecdotal, ref Shulgin and Shulgin, 1991

mTAAR1, sequence (Q923Y8 whole entry): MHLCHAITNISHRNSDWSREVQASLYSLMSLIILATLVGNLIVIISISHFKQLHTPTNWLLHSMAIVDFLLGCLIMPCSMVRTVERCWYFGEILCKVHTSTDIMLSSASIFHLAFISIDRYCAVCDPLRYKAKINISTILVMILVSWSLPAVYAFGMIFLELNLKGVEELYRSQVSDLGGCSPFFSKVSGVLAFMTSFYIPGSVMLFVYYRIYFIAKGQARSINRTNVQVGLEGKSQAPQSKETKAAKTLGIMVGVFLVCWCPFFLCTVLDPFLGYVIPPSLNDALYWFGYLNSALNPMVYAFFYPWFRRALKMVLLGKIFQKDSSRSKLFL

SMILES | Ki [1] [nM] | Ki [2] [nM] | duration of effects in humans [3, 4] [h] | psychoactive dose in humans [3, 4] [mg] | dose with some psychoactivity in humans ([3]; initial doses, anecdotal, ref Trachsel et al., 2013) [mg] | activity in humans ([3]; doses up to 300 mg)
C=CCOc1cc(OC)c(CCN)c(OC)c1 [Ψ-2C-O-16, 4-allyloxy-2,6-dimethoxyphenethylamine] | 150 ± 20 | 910 ± 60 |  |  |  | 
C=C(C)COc1cc(OC)c(CC(C)N)c(OC)c1 (stereo not shown) [Ψ-MMALM, 2,6-dimethoxy-4-methallyloxyamphetamine] | 250 ± 50 | > 5600 |  |  |  | 
COc1cc(OCC(F)(F)F)cc(OC)c1CCN [Ψ-2C-O-22, 2,6-dimethoxy-4-(2,2,2-trifluoroethoxy)phenethylamine] | 210 ± 40 | 2400 |  |  |  | 
COc1cc(OCC(F)F)cc(OC)c1CC(C)N (stereo not shown) [Ψ-MDFEM, 4-(2,2-difluoroethoxy)-2,6-dimethoxyamphetamine] | 500 ± 70 | > 5600 |  |  |  | 
COc1cc(OCc2ccccc2)cc(OC)c1CCN [Ψ-2C-O-27, 4-benzyloxy-2,6-dimethoxyphenethylamine] | 610 ± 6 | 2100 |  |  |  | 
COc1cc(OCc2ccccc2)cc(OC)c1CC(C)N (stereo not shown) [Ψ-MBnM, 4-benzyloxy-2,6-dimethoxyamphetamine] | 190 ± 10 | > 5600 |  |  |  | 
COc1cc(OC)c(CC(C)N)c(OC)c1 (stereo not shown) [TMA-6, 2,4,6-trimethoxyamphetamine] | 850 ± 20 | > 5600 | 12 to 16 | 25 to 50 |  | 
CCOc1cc(OC)c(CC(C)N)c(OC)c1 (stereo not shown) [Ψ-MEM, 2,6-dimethoxy-4-ethoxyamphetamine] | 400 ± 20 | > 5600 |  |  |  | 
COc1cc(OCCF)cc(OC)c1CCN [Ψ-2C-O-21, 2,6-dimethoxy-4-(2-fluoroethoxy)phenethylamine] | 320 ± 30 | 1600 |  |  |  | 
COc1cc(OC(F)F)cc(OC)c1CC(C)N (stereo not shown) [Ψ-DODFMO, 4-(2,2-difluoromethoxy)-2,6-dimethoxyamphetamine] | 860 ± 40 | 5100 |  |  |  | 
C=CCOc1cc(OC)c(CC(C)N)c(OC)c1 (stereo not shown) [Ψ-MALM, 4-allyloxy-2,6-dimethoxyamphetamine] | 270 ± 50 | > 5600 |  |  |  | 
COc1cc(OC(F)F)cc(OC)c1CCN [Ψ-2C-O-35, 4-(2,2-difluoromethoxy)-2,6-dimethoxyphenethylamine] | 680 ± 120 | 4440 |  |  | 17 | 
COc1cc(OCC(F)F)cc(OC)c1CCN [Ψ-2C-O-21.5, 4-(2,2-difluoroethoxy)-2,6-dimethoxyphenethylamine] | 220 ± 40 | 1300 |  |  |  | 
CCOc1cc(OC)c(CCN)c(OC)c1 [Ψ-2C-O-2, 2,6-dimethoxy-4-ethoxyphenethylamine] | 230 ± 20 | 710 ± 30 |  |  |  | 
C=C(C)COc1cc(OC)c(CCN)c(OC)c1 [Ψ-2C-O-3, 2,6-dimethoxy-4-methallyloxyphenethylamine] | 120 ± 20 | 1010 |  |  |  | 
COc1cc(OCC(F)(F)F)cc(OC)c1CC(C)N (stereo not shown) [Ψ-MTFEM, 2,6-dimethoxy-4-(2,2,2-trifluoroethoxy)amphetamine] | 410 ± 80 | > 5600 |  |  |  | 
COc1cc(OCCF)cc(OC)c1CC(C)N (stereo not shown) [Ψ-MFEM, 2,6-dimethoxy-4-(2-fluoroethoxy)amphetamine] | 560 ± 10 | > 5600 |  |  |  | 
COc1cc(OC)c(CCN)c(OC)c1 [Ψ-2C-O-1, 2,4,6-trimethoxyphenethylamine] | 590 ± 20 | 960 ± 90 |  |  |  | inactive

Reference: article PMC12675387, “Receptor interaction profiles of 4-alkoxy-2,6-dimethoxyphenethylamines (Ψ derivatives) and related amphetamines” (Frontiers in Pharmacology, 2025)
